Assay results taken from patent US12268674B2, “Mi-2β inhibitor as an immunotherapy agent” (BioVentures, LLC, priority 2021, dated 2025).

What was measured:
[1] = molecular target: T1, UBA2 (Homo sapiens, UniProt Q9UBT2); assay: ATPase profile (ATP acyl phosphate probe); assay type: binding
T1 construct: to get the native cell lysate; endogenous in cells; host or cells: A375 cell lysate

[2] = molecular target: T2, NT5E (Homo sapiens, UniProt P21589); assay: ATPase profile (ATP acyl phosphate probe); assay type: binding; conditions: SEQ ID NO: 140, ATP BS
T2 construct: to get the native cell lysate; endogenous in cells; host or cells: A375

[3] = molecular target: T3, DDX18 (Homo sapiens, UniProt Q9NVP1); assay: ATPase profile (ATP acyl phosphate probe); assay type: binding; conditions: DDX18, SEQ ID NO: 66, ATP BS
T3 construct: endogenous in cells; host or cells: A375 cell lysate

[4] = molecular target: T4, APRT (Homo sapiens, UniProt P07741); assay: ATPase profile (ATP acyl phosphate probe); assay type: binding; conditions: SEQ ID NO: 40, ATP BS
T4 construct: to get the native cell lysate; host or cells: A375 cell lysate

[5] = molecular target: T5, UBA3 (Homo sapiens, UniProt Q8TBC4); assay: ATPase profile (ATP acyl phosphate probe); assay type: binding; conditions: UBA3, SEQ ID NO: 220, ATP BS
T5 construct: to get the native cell lysate; endogenous in cells; host or cells: A375 cell lysate

[6] = molecular target: T6, XRCC6 (Homo sapiens, UniProt P12956); assay: ATPase profile (ATP acyl phosphate probe); assay type: binding; conditions: XRCC6, SEQ ID NO: 232, ATP BS
T6 construct: to get the native cell lysate; endogenous in cells; host or cells: A375 cell lysate

[7] = molecular target: T7, YME1L1 (Homo sapiens, UniProt Q96TA2); assay: ATPase profile (ATP acyl phosphate probe); assay type: binding; conditions: YME1L1, SEQ ID NO: 233, ATP BS
T7 construct: to get the native cell lysate; endogenous in cells; host or cells: A375 cell lysate

[8] = molecular target: PRKAG1 (Homo sapiens, UniProt P54619); assay: ATPase profile (ATP acyl phosphate probe); assay type: binding
[9] = molecular target: T8, OLA1 (Homo sapiens, UniProt Q9NTK5); assay: ATPase profile (ATP acyl phosphate probe); assay type: binding; conditions: OLA1, SEQ ID NO: 150, ATP BS
T8 construct: to get the native cell lysate; endogenous in cells; host or cells: A375

[10] = molecular target: T9, NME3 (Homo sapiens, UniProt Q13232); assay: ATPase profile (ATP acyl phosphate probe); assay type: binding; conditions: NME3, SEQ ID NO: 134, ATP BS
T9 construct: to get the native cell lysate; endogenous in cells; host or cells: A375

[11] = molecular target: T10, RAD17 (Homo sapiens, UniProt O75943); assay: ATPase profile (ATP acyl phosphate probe); assay type: binding; conditions: RAD17, SEQ ID NO: 181, ATP BS
T10 construct: to get the native cell lysate; endogenous in cells; host or cells: A375 cell lysate

[12] = molecular target: T11, ABCB10 (Homo sapiens, UniProt Q9NRK6); assay: ATPase profile (ATP acyl phosphate probe); assay type: binding; conditions: ABCB10, SEQ ID NO: 2, ATP BS
T11 construct: to get the native cell lysate; host or cells: A375 cell lysate

[13] = system: VPS4A, VPS4B; assay: ATPase profile (ATP acyl phosphate probe); assay type: binding; conditions: SEQ ID NO: 229, ATP BS
[14] = molecular target: T12, ABCC2 (Homo sapiens, UniProt Q92887); assay: ATPase profile (ATP acyl phosphate probe); assay type: binding; conditions: ABCC2, SEQ ID NO: 8, ATP BS
T12 construct: to get the native cell lysate; host or cells: A375 cell lysate

[15] = molecular target: T13, ABCF1 (Homo sapiens, UniProt Q8NE71); assay: ATPase profile (ATP acyl phosphate probe); assay type: binding; conditions: ABCF1, SEQ ID NO: 16, ATP BS
T13 construct: to get the native cell lysate; host or cells: A375 cell lysate

[16] = molecular target: T14, GSS (Homo sapiens, UniProt P48637); assay: ATPase profile (ATP acyl phosphate probe); assay type: binding
T14 construct: endogenous in cells; host or cells: A375 cell lysate

[17] = molecular target: T15, HSPA8 (Homo sapiens, UniProt P11142); assay: ATPase profile (ATP acyl phosphate probe); assay type: binding
T15 construct: to get the native cell lysate; endogenous in cells; host or cells: A375

[18] = Tolerability in C57BL/6 mice (body weight, H&E staining of tissues); assay type: in vivo; conditions: 30 mg/kg/day for 2 weeks
Description: FIG. 11 illustrates In vitro assay for Mi-2β inhibitors. A, The inhibitory activity of Z36 for Mi-2β chromatin modulatory activity, measured as fold changes of Mi-2β activity treated with control vehicle. B, The inhibitory activity of Z36-MP5 with IC50 values against Mi-2β at different ATP concentrations. The curves from top to bottom: ATP 300 (μM), ATP 100 (μM), ATP 30 (μM), and ATP 10 (μM). C, The expression of Irf1, Cxc19 and Cxcl10 and Irf1 mRNA in B16F10 cells treated with Z36-MP5 as indicated concentration for 24 hours was determined with RT-qPCR assay. The four bars from left to right: vehicle control, Z36-MP5 5 μM, Z36-MP5 25 μM, and Z36-MP5 100 μM. D, Z36-MP5-treated (25 μM) GFP-labelled B16F10 cells were pretreated with 10 ng/ml of IFN-γ for 24 hours, before co-culture with activated Pmel-1 T cells at a ratio of 1:1 for three days. The fold changes of survival GFP-positive tumor cells were assayed with flow cytometry. Data presents as means±SD E, The body weight changes of C57BL/6J mice treated with Z36-MP5 (30 mg/kg/day) for 2 weeks. Data are mean±SEM (n=5). […]
Z36-MP5 was chosen for further validation and experimental therapeutics in vivo. […] To investigate its cellular inhibitory activity, B16-F10 cells were treated with Z36-MP5 at concentrations ranging from 5 to 100 μM, and the activation of Mi-2β target genes measured by RT-qPCR. […]

[19] = molecular target: T16, RFC5 (Homo sapiens, UniProt P40937); assay: ATPase profile (ATP acyl phosphate probe); assay type: binding; conditions: RFC5, SEQ ID NO: 186, ATP BS
T16 construct: to get the native cell lysate; endogenous in cells; host or cells: A375 cell lysate

[20] = molecular target: T17, DDX21 (Homo sapiens, UniProt Q9NR30); assay: ATPase profile (ATP acyl phosphate probe); assay type: binding; conditions: DDX21, SEQ ID NO: 67, ATP BS
T17 construct: endogenous in cells; host or cells: A375 cell lysate
T17 sequence (Q9NR30 whole entry): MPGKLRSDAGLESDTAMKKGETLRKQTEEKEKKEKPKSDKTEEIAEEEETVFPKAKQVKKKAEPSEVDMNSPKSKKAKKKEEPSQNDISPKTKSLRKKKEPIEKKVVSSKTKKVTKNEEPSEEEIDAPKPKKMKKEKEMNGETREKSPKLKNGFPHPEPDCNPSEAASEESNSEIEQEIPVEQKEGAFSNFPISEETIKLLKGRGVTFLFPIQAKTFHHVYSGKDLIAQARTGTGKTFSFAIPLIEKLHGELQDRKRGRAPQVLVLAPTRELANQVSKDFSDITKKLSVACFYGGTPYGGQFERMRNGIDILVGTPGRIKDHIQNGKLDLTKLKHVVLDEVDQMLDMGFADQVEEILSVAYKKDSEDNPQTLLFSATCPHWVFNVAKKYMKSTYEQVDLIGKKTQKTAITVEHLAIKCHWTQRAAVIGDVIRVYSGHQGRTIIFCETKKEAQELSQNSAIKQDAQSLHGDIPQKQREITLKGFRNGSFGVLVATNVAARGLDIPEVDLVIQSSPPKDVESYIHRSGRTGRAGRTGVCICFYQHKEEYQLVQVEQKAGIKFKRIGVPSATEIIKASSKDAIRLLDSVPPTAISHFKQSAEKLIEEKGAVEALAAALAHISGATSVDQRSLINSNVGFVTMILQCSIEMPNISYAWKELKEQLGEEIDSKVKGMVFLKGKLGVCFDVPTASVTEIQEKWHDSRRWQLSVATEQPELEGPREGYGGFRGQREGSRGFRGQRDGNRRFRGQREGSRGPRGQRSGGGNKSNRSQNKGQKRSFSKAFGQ

T15 sequence (P11142 whole entry): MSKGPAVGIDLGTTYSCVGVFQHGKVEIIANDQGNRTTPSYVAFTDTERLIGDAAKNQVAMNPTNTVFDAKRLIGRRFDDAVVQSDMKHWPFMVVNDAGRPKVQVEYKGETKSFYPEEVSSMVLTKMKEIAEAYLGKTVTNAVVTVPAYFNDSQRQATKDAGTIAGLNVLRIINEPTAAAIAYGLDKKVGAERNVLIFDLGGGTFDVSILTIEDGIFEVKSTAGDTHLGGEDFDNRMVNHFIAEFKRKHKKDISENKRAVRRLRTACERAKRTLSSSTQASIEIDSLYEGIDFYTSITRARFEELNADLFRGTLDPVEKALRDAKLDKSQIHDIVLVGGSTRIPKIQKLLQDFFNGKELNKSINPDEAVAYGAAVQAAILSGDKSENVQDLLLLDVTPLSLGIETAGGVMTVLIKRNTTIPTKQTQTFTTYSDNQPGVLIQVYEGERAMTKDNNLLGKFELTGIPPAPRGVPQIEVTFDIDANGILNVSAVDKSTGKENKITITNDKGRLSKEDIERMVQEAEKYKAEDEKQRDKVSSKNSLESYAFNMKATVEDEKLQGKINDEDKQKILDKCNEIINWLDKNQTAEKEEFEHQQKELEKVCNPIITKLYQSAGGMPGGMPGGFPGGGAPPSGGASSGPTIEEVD
T1 sequence (Q9UBT2 whole entry): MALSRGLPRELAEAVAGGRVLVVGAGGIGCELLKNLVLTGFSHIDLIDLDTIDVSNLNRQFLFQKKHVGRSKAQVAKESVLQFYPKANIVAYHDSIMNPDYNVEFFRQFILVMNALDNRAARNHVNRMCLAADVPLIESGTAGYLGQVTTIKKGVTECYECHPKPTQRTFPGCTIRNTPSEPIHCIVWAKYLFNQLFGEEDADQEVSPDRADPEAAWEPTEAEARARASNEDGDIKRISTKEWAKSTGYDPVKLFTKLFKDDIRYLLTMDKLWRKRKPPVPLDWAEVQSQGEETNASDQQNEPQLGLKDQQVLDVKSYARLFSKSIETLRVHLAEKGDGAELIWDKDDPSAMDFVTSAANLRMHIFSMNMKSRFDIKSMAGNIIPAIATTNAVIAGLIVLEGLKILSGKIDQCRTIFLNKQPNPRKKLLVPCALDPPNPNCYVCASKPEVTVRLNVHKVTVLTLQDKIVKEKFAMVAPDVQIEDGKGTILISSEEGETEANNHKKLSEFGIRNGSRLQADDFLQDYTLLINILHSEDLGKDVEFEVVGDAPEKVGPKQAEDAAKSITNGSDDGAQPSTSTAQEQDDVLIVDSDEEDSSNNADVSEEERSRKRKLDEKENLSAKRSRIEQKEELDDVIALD
T1 sequence (Q9UBE0 whole entry partner): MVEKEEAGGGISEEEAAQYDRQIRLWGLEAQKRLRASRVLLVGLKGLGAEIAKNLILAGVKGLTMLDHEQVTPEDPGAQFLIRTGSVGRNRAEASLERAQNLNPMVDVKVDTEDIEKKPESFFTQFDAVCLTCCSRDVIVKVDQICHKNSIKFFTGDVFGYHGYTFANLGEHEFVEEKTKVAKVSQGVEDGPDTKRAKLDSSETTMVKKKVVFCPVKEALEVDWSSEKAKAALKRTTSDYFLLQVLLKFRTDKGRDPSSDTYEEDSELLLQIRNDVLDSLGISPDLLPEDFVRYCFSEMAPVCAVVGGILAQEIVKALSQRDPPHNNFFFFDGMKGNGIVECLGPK
T14 sequence (P48637 whole entry): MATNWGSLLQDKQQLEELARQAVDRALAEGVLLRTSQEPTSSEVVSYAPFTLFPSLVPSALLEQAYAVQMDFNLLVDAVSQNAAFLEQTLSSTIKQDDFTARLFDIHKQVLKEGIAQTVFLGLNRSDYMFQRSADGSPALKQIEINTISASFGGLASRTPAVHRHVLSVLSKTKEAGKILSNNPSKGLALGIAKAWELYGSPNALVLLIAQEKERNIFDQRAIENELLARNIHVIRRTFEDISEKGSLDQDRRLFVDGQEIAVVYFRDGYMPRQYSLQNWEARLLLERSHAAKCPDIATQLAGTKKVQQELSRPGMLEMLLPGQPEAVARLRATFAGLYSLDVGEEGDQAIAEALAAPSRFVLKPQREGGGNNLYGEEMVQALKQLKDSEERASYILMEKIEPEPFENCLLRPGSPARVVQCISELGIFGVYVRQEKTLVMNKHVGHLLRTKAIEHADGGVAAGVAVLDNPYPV
PRKAG1, sequence (P54619 whole entry): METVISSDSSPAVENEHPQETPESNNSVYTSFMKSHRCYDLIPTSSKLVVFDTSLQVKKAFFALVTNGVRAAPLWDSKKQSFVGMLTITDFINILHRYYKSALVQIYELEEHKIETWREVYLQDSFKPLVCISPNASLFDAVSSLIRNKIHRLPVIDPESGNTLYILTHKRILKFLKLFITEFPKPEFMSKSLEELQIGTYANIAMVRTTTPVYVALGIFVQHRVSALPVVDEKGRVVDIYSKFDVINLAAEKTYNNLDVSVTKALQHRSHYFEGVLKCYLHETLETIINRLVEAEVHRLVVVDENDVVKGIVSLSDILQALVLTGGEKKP
PRKAG1, sequence (Q13131 whole entry partner): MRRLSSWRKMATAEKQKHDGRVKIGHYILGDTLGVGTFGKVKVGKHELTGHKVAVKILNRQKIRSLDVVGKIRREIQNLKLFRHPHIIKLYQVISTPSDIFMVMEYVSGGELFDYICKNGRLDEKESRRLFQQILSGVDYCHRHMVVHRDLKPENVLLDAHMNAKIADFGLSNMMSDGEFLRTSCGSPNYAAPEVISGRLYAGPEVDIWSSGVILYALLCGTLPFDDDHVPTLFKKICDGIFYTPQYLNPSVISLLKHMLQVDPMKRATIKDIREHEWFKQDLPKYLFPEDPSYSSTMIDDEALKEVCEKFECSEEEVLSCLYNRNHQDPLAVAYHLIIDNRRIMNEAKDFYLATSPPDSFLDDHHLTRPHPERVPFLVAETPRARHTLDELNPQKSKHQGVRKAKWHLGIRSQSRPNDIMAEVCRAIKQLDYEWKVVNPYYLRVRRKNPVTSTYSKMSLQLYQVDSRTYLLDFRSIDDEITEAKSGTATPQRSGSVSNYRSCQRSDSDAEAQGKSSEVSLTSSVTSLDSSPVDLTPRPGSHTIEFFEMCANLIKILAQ
PRKAG1, sequence (Q9Y478 whole entry partner): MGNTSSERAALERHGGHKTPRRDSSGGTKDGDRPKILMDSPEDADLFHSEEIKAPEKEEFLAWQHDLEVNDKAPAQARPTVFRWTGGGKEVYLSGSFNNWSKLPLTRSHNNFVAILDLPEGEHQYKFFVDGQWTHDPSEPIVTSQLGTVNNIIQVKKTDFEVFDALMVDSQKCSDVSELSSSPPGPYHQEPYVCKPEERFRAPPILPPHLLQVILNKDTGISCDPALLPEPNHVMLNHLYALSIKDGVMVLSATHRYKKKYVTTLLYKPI
T4 sequence (P07741 whole entry): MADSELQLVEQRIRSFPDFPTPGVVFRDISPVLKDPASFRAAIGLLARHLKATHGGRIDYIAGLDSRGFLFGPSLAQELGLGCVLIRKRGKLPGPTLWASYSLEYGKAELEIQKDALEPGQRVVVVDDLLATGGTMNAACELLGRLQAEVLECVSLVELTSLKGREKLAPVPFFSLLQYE
T11 sequence (Q9NRK6 106-738): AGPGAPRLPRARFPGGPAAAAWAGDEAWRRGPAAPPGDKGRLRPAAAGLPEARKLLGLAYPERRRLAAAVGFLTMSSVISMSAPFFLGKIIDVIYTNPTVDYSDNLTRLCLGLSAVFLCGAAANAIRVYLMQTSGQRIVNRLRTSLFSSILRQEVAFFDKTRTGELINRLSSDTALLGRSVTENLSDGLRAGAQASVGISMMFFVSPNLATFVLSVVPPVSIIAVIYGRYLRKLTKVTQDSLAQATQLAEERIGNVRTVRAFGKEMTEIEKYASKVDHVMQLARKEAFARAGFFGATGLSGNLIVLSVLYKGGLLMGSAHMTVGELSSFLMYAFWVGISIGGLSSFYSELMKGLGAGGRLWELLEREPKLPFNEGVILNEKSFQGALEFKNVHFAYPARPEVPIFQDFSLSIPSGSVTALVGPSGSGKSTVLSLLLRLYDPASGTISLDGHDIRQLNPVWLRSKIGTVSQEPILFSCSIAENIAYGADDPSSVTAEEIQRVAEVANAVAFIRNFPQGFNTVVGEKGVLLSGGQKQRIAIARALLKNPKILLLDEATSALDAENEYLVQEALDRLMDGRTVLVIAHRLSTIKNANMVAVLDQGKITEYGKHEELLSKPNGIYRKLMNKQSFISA

Cn1c(=O)[nH]c2ccc(-c3cccc(C(=O)NC4CCn5ccnc5C4)c3)cc21 (stereo not drawn) [Z36-MP5, 3-(3-methyl-2-oxo-2,3-dihydro-1H-benzo[d]imidazol-5-yl)-N-(5,6,7,8-tetrahydroimidazo[1,2-a]pyridin-7-yl)benzamide]
Inhibition (%) by 1 μM Z36-MP5 ([1]; UBA2, SEQ ID NO: 218, ATP BS): 0.55%
Inhibition (%) by 1 μM Z36-MP5 ([1]; UBA2, SEQ ID NO: 219, ATP BS): 7.64%
Inhibition (%) by 1 μM Z36-MP5 [2]: −9.95%
Inhibition (%) by 1 μM Z36-MP5 [3]: −5.33%
Inhibition (%) by 1 μM Z36-MP5 [4]: 0.39%
Inhibition (%) by 1 μM Z36-MP5 [5]: −11.62%
Inhibition (%) by 1 μM Z36-MP5 [6]: 10.61%
Inhibition (%) by 1 μM Z36-MP5 [7]: −10.37%
Inhibition (%) by 1 μM Z36-MP5 ([8]; PRKAG1, SEQ ID NO: 167, ATP BS): −11.56%
Inhibition (%) by 1 μM Z36-MP5 ([8]; PRKAG1, SEQ ID NO: 168, ATP BS): −7.08%
Inhibition (%) by 1 μM Z36-MP5 [9]: −0.68%
Inhibition (%) by 1 μM Z36-MP5 [10]: 1.91%
Inhibition (%) by 1 μM Z36-MP5 [11]: 15.62%
Inhibition (%) by 1 μM Z36-MP5 [12]: −6.14%
Inhibition (%) by 1 μM Z36-MP5 [13]: −2.55%
Inhibition (%) by 1 μM Z36-MP5 [14]: 4.09%
Inhibition (%) by 1 μM Z36-MP5 [15]: −8.08%
Inhibition (%) by 1 μM Z36-MP5 ([16]; SEQ ID NO: 87, ATP BS): −5.02%
Inhibition (%) by 1 μM Z36-MP5 ([16]; SEQ ID NO: 88, ATP BS): 7.54%
Inhibition (%) by 1 μM Z36-MP5 ([17]; HSPA8, SEQ ID NO: 106, ATP BS): 3.27%
Inhibition (%) by 1 μM Z36-MP5 ([17]; HSPA8, SEQ ID NO: 107, ATP BS): 4.45%
tolerability (mouse weight, organ tissue histological staining) [18]: tolerated without significant toxicity
Inhibition (%) by 1 μM Z36-MP5 [19]: 2.11%
Inhibition (%) by 1 μM Z36-MP5 [20]: 3.05%
